The subject of data set [1] is Wilson strain house flies. Format: in vivo, Wilson strain (susceptible). To be noted: for Contact Synergistic Ratio, Pyrolan: LC50 pyrolan alone / LC50 with synergist. Put shortly: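 Wilson strain house flies held at room temperature in glass jars coated with acetone-deposited insecticide film, alone or with synergist at 5:1 synergist:insecticide by weight.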
Data set [2] deals with polyvalent resistant (CH strain) houseflies. As to the kind of experiment: whole plant or invertebrate. Format: in vivo. To be noted: CH strain; for percent kill after 24 hours, with GS 13005: GS 13005 1 + synergist 2 μg/fly; for percent kill after 24 hours, with GS 13798: GS 13798 1 + synergist 2 μg/fly; for mortality at 10 µg/fly: Musca domestica, topical, 24 h, read-out: percent kill after 24 hours, synergist alone; for mortality at 10 µg/fly / percent kill after 24 hours, synergist alone: insecticide 0, synergist 10 μg/fly; for percent kill after 24 hours, with Dimetilan: Dimetilan 2 + synergist 4 μg/fly; for percent kill after 24 hours, with pyrethrum: Pyrethrum 2 + synergist 4 μg/fly. The protocol: The effect of O-(2-propynyl) oximes with Dimetilan and with GS 13798 was obtained from tests on polyvalent resistant (CH strain) houseflies that had been chilled and to the dorsal region of which was applied an acetone solution of synergist and insecticide at a ratio of two to one. Duplicate tests were performed using 10 four to five-day old female houseflies per test. After dosage, the flies were put in a plastic petri dish with cotton soaked in a sugar-water solution. These doses of insecticide used without synergist caused 10-40% mortality.
In Table IX, and in the tables following it, the doses of topically applied insecticides and of synergists unless otherwise noted are expressed as micrograms per fly (μg/fly).
The effect of compounds II-C, II-D and II-E with Dimetilan and GS 13798 was determined, following the procedure of Example 5, from tests on polyvalent resistant (CH strain) houseflies. These doses of insecticide used without synergist caused 10-40% mortality.
The synergistic effect with GS 13005 of compounds I-A, I-B, I-D, I-E, I-F, I-G and I-I was determined from topical application tests to IN/WHO strain, Rutgers A strain and polyvalent CH strain houseflies using the procedures of Example 5. The percent kills of the IN/WHO strain flies after 24 hours are shown in Table XXVIII; of the Rutgers A strain, in Table XXIX; and of the polyvalent CH strain, in Table XXX. The doses of insecticide alone to the CH strain files caused 10-40% mortality.
The synergistic effect with Diazinon and GS 13005 of various of the benzyl 2-propynyl ethers identified in Tables II and IIa was determined by topical application tests on IN/WHO strain, and Rutgers A strain and polyvalent, resistant, CH strain houseflies using the procedures of Example 5. The percent kills after 24 hours of IN/WHO strain flies are shown in Table XXXI; of Rutgers A strain flies, in Table XXXII; and of CH strain flies, in Table XXXIII. The doses of insecticide alone to the CH strain flies caused 10-40% mortality.
The synergistic effect with pyrethrum of various synergist compounds was determined by topical application tests on polyvalent, resistant CH strain houseflies following the procedure of Example 5. Application of the insecticide alone caused 10-40% mortality.

In data set [3] the test system is IN/WHO strain house flies. The data set can be described thus: topical application, percent kill after 24 hours, susceptible IN/WHO strain. It is filed as in vivo, female). The conditions noted are these: for percent kill after 24 hours, synergist alone: insecticide 0, synergist 1 μg/fly. Put shortly: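 Insecticide plus synergist in acetone, 1.0 μl applied to the thorax of CO2-anesthetized 3-to-5-day-old female IN/WHO house flies, doses in μg/fly. Flies held 10 per dish, 3-5 dishes per treatment, with skim milk. Percent mortality scored after 24 h.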

Setting [4] is: synergist to insecticide 5:1 by weight.
[5] abbreviates: Diazinon 0.03 + synergist 0.15 μg/fly.
[6] abbreviates: Mobam 0.13 μg/fly, synergist/insecticide 0.5/1.
Where [7] appears, read: Mobam 0.13 μg/fly, synergist/insecticide 1/1.
The mark [8] stands for this setting: Mobam 0.13 μg/fly, synergist/insecticide 2/1.
Where [9] appears, read: Mobam 0.13 μg/fly, synergist/insecticide 5/1.
Setting [10] is: Mobam 0.25 μg/fly, synergist/insecticide 0.5/1.
The mark [11] stands for this setting: Mobam 0.25 μg/fly, synergist/insecticide 1/1.
Setting [12] is: Mobam 0.25 μg/fly, synergist/insecticide 2/1.
[13] abbreviates: Mobam 0.25 μg/fly, synergist/insecticide 5/1.
The mark [14] stands for this setting: Mobam 0.50 μg/fly, synergist/insecticide 0.5/1.
The mark [15] stands for this setting: Mobam 0.50 μg/fly, synergist/insecticide 1/1.
Where [16] appears, read: Mobam 0.50 μg/fly, synergist/insecticide 2/1.
[17] abbreviates: Mobam 0.50 μg/fly, synergist/insecticide 5/1.
Setting [18] is: Mobam 1.0 μg/fly, synergist/insecticide 0.5/1.
Where [19] appears, read: Mobam 1.0 μg/fly, synergist/insecticide 1/1.
Setting [20] is: Mobam 1.0 μg/fly, synergist/insecticide 2/1.
[21] abbreviates: Mobam 1.0 μg/fly, synergist/insecticide 5/1.
[22] abbreviates: Mobam 0.05 + synergist 0.25 μg/fly.
Where [23] appears, read: Mobam 0.10 + synergist 0.50 μg/fly.
The mark [24] stands for this setting: Mobam 0.20 + synergist 1 μg/fly.

Each structure is given as a SMILES string. Like-named read-outs stand apart in the source and are kept apart here.

As for `C#CCOCc1c(Cl)ccc(Cl)c1Cl` [II-E], the “Contact Synergistic Ratio, Pyrolan” value in data set [1] (setting [4]) is given as 20. Further, the “Contact Synergistic Ratio, Carbaryl” value in data set [1] (in vivo) came out at 120. Moreover, in data set [2], the “percent kill after 24 hours, with GS 13005” value (shortened to “percent kill … with GS 13005”) amounted to 100%. Moreover, the “percent kill after 24 hours, with GS 13798” value (“percent kill … with GS 13798” for short) in data set [2] turned out to be 100%. Also, the mortality at 10 µg/fly in data set [2] was 10%. The entries for the “percent kill after 24 hours, synergist alone” value (“percent kill … synergist alone” for short) in data set [2] and in data set [3] were 10% and 0%, respectively. In addition, the “percent kill after 24 hours, with Diazinon” value (from here on “percent kill … with Diazinon”) in data set [3] (setting [5]) came to 45%. For the same molecule, the “percent mortality 24 hours, with Mobam” value is recorded as 30% in data set [3] (setting [6]); 27% in data set [3] (setting [7]); 17% in data set [3] (setting [8]); 40% in data set [3] (setting [9]); 53% in data set [3] (setting [10]); 77% in data set [3] (setting [11]). Besides, the “percent mortality 24 hours, with Mobam” value in data set [3] (setting [12]) was found to be 73%; in data set [3] (setting [13]), 67%; in data set [3] (setting [14]), 97%; in data set [3] (setting [15]), 97%; in data set [3] (setting [16]), 93%; in data set [3] (setting [17]), 100%. Besides, the “percent mortality 24 hours, with Mobam” value in data set [3] (setting [18]), in data set [3] (setting [19]), in data set [3] (setting [20]) and in data set [3] (setting [21]) was 100% each time. For the same molecule, the “percent kill after 24 hours, with Mobam” value is recorded as 5% in data set [3] (setting [22]), 33% in data set [3] (setting [23]) and 100% in data set [3] (setting [24]).
With `C#CCOCc1ccc(Cl)c(Cl)c1` [II-C], the “Contact Synergistic Ratio, Carbaryl” value in data set [1] (LC50 carbaryl alone / LC50 with synergist, synergist to insecticide 5:1 by weight) was 100. Also, in data set [1] (setting [4]), the “Contact Synergistic Ratio, Pyrolan” value is reported as 15. The “percent kill after 24 hours, with Dimetilan” value (“percent kill … with Dimetilan” below) in data set [2] is recorded as 100%. Besides, in data set [2], the mortality at 10 µg/fly worked out at 0%. The “percent kill … synergist alone” value in data set [2] and in data set [3] was 0% each time. Also, the “percent kill … with Diazinon” value in data set [3] (setting [5]) turned out to be 23%. Besides, the “percent kill after 24 hours, with Mobam” value in data set [3] (setting [22]) is 4%; in data set [3] (setting [23]), 27%; in data set [3] (setting [24]), 99%.
On to `C#CCOCc1ccc(Cl)c(Cl)c1Cl` [II-D], for which the “Contact Synergistic Ratio, Pyrolan” value in data set [1] (setting [4]) was found to be 30. Moreover, the “Contact Synergistic Ratio, Carbaryl” value in data set [1] (in vivo) worked out at 200. In addition, in data set [2], the “percent kill … with Dimetilan” value is on record as 100%. Moreover, the “percent kill … with GS 13798” value in data set [2] worked out at 100%. In addition, in data set [2], the mortality at 10 µg/fly worked out at 0%. The “percent kill after 24 hours, with pyrethrum” value (from here on “percent kill … with pyrethrum”) in data set [2] came out at 30%. Also, the “percent kill … synergist alone” value in data set [2] and in data set [3] was 0% throughout. Further, in data set [3] (setting [5]), the “percent kill … with Diazinon” value was 40%. Further, the “percent mortality 24 hours, with Mobam” value in data set [3] (setting [6]) came to 7%; in data set [3] (setting [7]) it was 17%; in data set [3] (setting [9]), 50%; in data set [3] (setting [10]) it was 30%; in data set [3] (setting [11]) it was 63%; in data set [3] (setting [12]), 83%. Also, the “percent mortality 24 hours, with Mobam” value in data set [3] (setting [13]) amounted to 97%; in data set [3] (setting [14]), 57%; in data set [3] (setting [15]), 100%; in data set [3] (setting [16]), 97%; in data set [3] (setting [17]), 100%; in data set [3] (setting [18]), 97%. The “percent mortality 24 hours, with Mobam” value in data set [3] (setting [19]), in data set [3] (setting [20]) and in data set [3] (setting [21]) was 100% throughout. Also, the “percent kill after 24 hours, with Mobam” value was determined as 10% in data set [3] (setting [22]), 50% in data set [3] (setting [23]) and 100% in data set [3] (setting [24]).
With `C#CCON=Cc1ccc(Cl)cc1Cl` [I-G], in data set [2], the “percent kill … with GS 13005” value stood at 100%; the mortality at 10 µg/fly turned out to be 0%; the “percent kill … with pyrethrum” value worked out at 47%; the “percent kill … synergist alone” value is on record as 0%. Also, the “percent kill … with Diazinon” value in data set [3] (Diazinon 0.02 + synergist 0.10 μg/fly) turned out to be 40%. Besides, the “percent kill … synergist alone” value in data set [3] is 0%.
On to `C#CCON=Cc1cccc2ccccc12` [I-I], for which, in data set [2], the “percent kill … with GS 13005” value was determined as 47%; the mortality at 10 µg/fly was determined as 0%; the “percent kill … synergist alone” value turned out to be 0%.
Consider `C#CCOCc1cc(Cl)c(Cl)cc1Cl` [II-F], for which the “Contact Synergistic Ratio, Pyrolan” value in data set [1] (setting [4]) stood at 15. Further, in data set [1] (in vivo), the “Contact Synergistic Ratio, Carbaryl” value was 150. The “percent mortality 24 hours, with Mobam” value worked out at 3% in data set [3] (setting [6]); 10% in data set [3] (setting [7]); 0% in data set [3] (setting [8]); 23% in data set [3] (setting [9]); 33% in data set [3] (setting [10]); 57% in data set [3] (setting [11]). The “percent mortality 24 hours, with Mobam” value in data set [3] (setting [12]) was 27%; in data set [3] (setting [13]) it was 73%; in data set [3] (setting [14]), 70%; in data set [3] (setting [15]), 83%; in data set [3] (setting [16]), 80%; in data set [3] (setting [17]) it was 97%. The “percent mortality 24 hours, with Mobam” value in data set [3] (setting [18]) is 100%; in data set [3] (setting [19]), 93%; in data set [3] (setting [20]), 93%; in data set [3] (setting [21]), 100%.
As for `C#CCON=C(C)c1ccc2ccccc2c1` [I-F], in data set [1] (setting [4]), the “Contact Synergistic Ratio, Pyrolan” value was found to be 50. For the same molecule, the “Contact Synergistic Ratio, Carbaryl” value in data set [1] (in vivo) is recorded as 200. Moreover, in data set [2], the “percent kill … with Dimetilan” value came out at 100%; the “percent kill … with GS 13005” value was 100%; the mortality at 10 µg/fly worked out at 0%; the “percent kill … with pyrethrum” value was 35%. In data set [2], the “percent kill … synergist alone” value came to 0%. Also, in data set [3] (setting [5]), the “percent kill … with Diazinon” value turned out to be 24%. The “percent kill … with GS 13005” value in data set [3] (GS 13005 0.10 + synergist 0.50 μg/fly) was found to be 45%. For the same molecule, the “percent kill after 24 hours, with Mobam” value in data set [3] (setting [24]) was 47%. In data set [3], the “percent kill … synergist alone” value amounted to 0%.
Consider `C#CCON=C(C)c1ccc(Cl)cc1` [I-D], for which, in data set [1] (setting [4]), the “Contact Synergistic Ratio, Pyrolan” value is 25. Besides, the “Contact Synergistic Ratio, Carbaryl” value in data set [1] (in vivo) amounted to 177. In data set [2], the “percent kill … with Dimetilan” value is 100%; the “percent kill … with GS 13005” value amounted to 100%; the “percent kill … with GS 13798” value is on record as 100%; the mortality at 10 µg/fly was 0%. Also, the “percent kill … synergist alone” value in data set [2] is listed as 0%. Besides, the “percent kill … with Diazinon” value in data set [3] (setting [5]) is given as 50%. In addition, the “percent kill after 24 hours, with Mobam” value in data set [3] (setting [22]) amounted to 8%. Further, in data set [3] (setting [23]), the “percent kill after 24 hours, with Mobam” value stood at 20%. Besides, in data set [3] (setting [24]), the “percent kill after 24 hours, with Mobam” value came out at 92%. For the same molecule, in data set [3], the “percent kill … synergist alone” value is listed as 0%.

For the origin of these results see patent US3954793A, “1-(2-Propynyl)-1 H-indazole compounds” (priority 1973, dated 1976).
